According to the supplement of paper PMC10307832:

What was measured:
Experiment in all cases: relative viability (nuclei count vs DMSO), 5 days (fraction); higher = more cells survive
Ispinesib + Phenformin = compound: Cc1ccc(C(=O)N(CCCN)[C@@H](c2nc3cc(Cl)ccc3c(=O)n2Cc2ccccc2)C(C)C)cc1 [Ispinesib] + N=C(N)NC(=N)NCCc1ccccc1 [Phenformin] (partner 250 µM)
Outline: (§1)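 Cells from lung cancer lines were seeded into 1536-well plates and, one day later, dosed by pin tool. Treatments were either a single drug or a fixed dose of an anchor drug with five library-drug doses (not always all listed) in √10 steps. After 5 days, nuclei were stained in a one-step fixation (final 0.05% Triton X-100, 1% formaldehyde, 1 ug/ml Hoechst) and counted on 4× images, and relative viability is the treated-to-vehicle nuclei ratio, as the median of duplicate plates.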

Ispinesib + OSI-027 = compound: Cc1ccc(C(=O)N(CCCN)[C@@H](c2nc3cc(Cl)ccc3c(=O)n2Cc2ccccc2)C(C)C)cc1 [Ispinesib] + COc1cccc2cc(-c3nc([C@H]4CC[C@H](C(=O)O)CC4)n4ncnc(N)c34)[nH]c12 [OSI-027] (partner 0.5 µM)
Outline: as §1

Linsitinib + Dasatinib = compound: C[C@]1(O)C[C@@H](c2nc(-c3ccc4ccc(-c5ccccc5)nc4c3)c3c(N)nccn32)C1 [Linsitinib] + Cc1nc(Nc2ncc(C(=O)Nc3c(C)cccc3Cl)s2)cc(N2CCN(CCO)CC2)n1 [Dasatinib] (partner 0.075 µM)
Outline: as §1

Linsitinib + Lapatinib = compound: C[C@]1(O)C[C@@H](c2nc(-c3ccc4ccc(-c5ccccc5)nc4c3)c3c(N)nccn32)C1 [Linsitinib] + CS(=O)(=O)CCNCc1ccc(-c2ccc3ncnc(Nc4ccc(OCc5cccc(F)c5)c(Cl)c4)c3c2)o1 [Lapatinib] (partner 2 µM)
Outline: as §1

Cell Line | relative viability (Ispinesib + Phenformin; first compound 0.001 µM) | relative viability (Ispinesib + Phenformin; first compound 0.003162 µM) | relative viability (Ispinesib + Phenformin; first compound 0.01 µM) | relative viability (Ispinesib + Phenformin; first compound 0.03162 µM) | relative viability (Ispinesib + Phenformin; first compound 0.1 µM) | relative viability (Ispinesib + OSI-027; first compound 0.001 µM) | relative viability (Ispinesib + OSI-027; first compound 0.003162 µM) | relative viability (Ispinesib + OSI-027; first compound 0.01 µM) | relative viability (Ispinesib + OSI-027; first compound 0.03162 µM) | relative viability (Ispinesib + OSI-027; first compound 0.1 µM) | relative viability (Linsitinib + Dasatinib; first compound 0.01 µM) | relative viability (Linsitinib + Dasatinib; first compound 0.03162 µM) | relative viability (Linsitinib + Dasatinib; first compound 0.1 µM) | relative viability (Linsitinib + Dasatinib; first compound 0.3162 µM) | relative viability (Linsitinib + Dasatinib; first compound 1 µM) | relative viability (Linsitinib + Lapatinib; first compound 0.01 µM) | relative viability (Linsitinib + Lapatinib; first compound 0.03162 µM) | relative viability (Linsitinib + Lapatinib; first compound 0.1 µM) | relative viability (Linsitinib + Lapatinib; first compound 0.3162 µM) | relative viability (Linsitinib + Lapatinib; first compound 1 µM)
NCI-H322M | 0.874 | 0.891 | 0.82 | 0.39 | 0.389 | 0.621 | 0.529 | 0.549 | 0.448 | 0.331 | 0.244 | 0.256 | 0.229 | 0.223 | 0.26 | 0.63 | 0.612 | 0.567 | 0.933 | 0.507
NCI-H358 | 0.391 | 0.351 | 0.266 | 0.102 | 0.0986 | 0.999 | 0.837 | 1.02 | 0.392 | 0.129 | 0.162 | 0.167 | 0.159 | 0.148 | 0.142 | 0.423 | 0.388 | 0.388 | 0.366 | 0.303
NCI-H460 | 0.557 | 0.579 | 0.559 | 0.0429 | 0.032 | 0.787 | 0.835 | 1.03 | 0.417 | 0.0414 | 0.578 | 0.393 | 0.441 | 0.34 | 0.146 | 1 | 0.784 | 1.03 | 0.699 | 0.868
NCI-H520 | 0.535 | 0.571 | 0.382 | 0.251 | 0.222 | 0.249 | 0.218 | 0.276 | 0.19 | 0.169 | 0.191 | 0.192 | 0.2 | – | 0.195 | 0.934 | 0.462 | 0.979 | – | 0.929
NCI-H596 | 0.676 | 0.791 | 0.765 | 0.791 | 0.315 | 0.818 | 0.674 | 0.951 | 0.625 | 0.29 | 0.643 | 0.673 | 0.625 | 0.647 | 0.437 | 1.05 | 1.07 | 1.05 | 0.965 | 0.991
NCI-H647 | 0.609 | 0.476 | 0.52 | 0.0907 | 0.126 | 0.76 | 0.696 | 0.766 | 0.235 | 0.107 | 0.206 | 0.203 | 0.165 | – | 0.158 | 1.12 | 1.11 | 1.09 | – | 0.854
NCI-H650 | 0.451 | 0.445 | 0.476 | 0.312 | 0.18 | 0.571 | 0.624 | 0.585 | 0.381 | 0.23 | 0.45 | 0.432 | 0.47 | 0.374 | 0.325 | 0.701 | 0.926 | 0.871 | – | 0.646
NCI-H661 | 0.288 | 0.299 | 0.224 | 0.195 | 0.216 | 0.744 | 0.831 | 0.721 | 0.493 | 0.263 | 0.899 | 0.815 | 0.946 | 0.722 | 0.768 | 0.566 | 0.501 | 0.514 | 0.691 | 0.424
NCI-H727 | 0.601 | 0.6 | 0.385 | 0.466 | 0.309 | 0.856 | 0.707 | 0.604 | 0.404 | 0.361 | 0.421 | 0.274 | 0.372 | 0.252 | 0.252 | 0.716 | 0.724 | 0.863 | 0.428 | 0.377
NCI-H838 | 0.649 | 0.605 | 0.827 | 0.194 | 0.163 | 0.425 | 0.359 | 0.539 | 0.436 | 0.197 | 0.273 | 0.258 | 0.267 | 0.227 | 0.225 | 0.963 | 0.929 | 0.883 | 0.286 | 0.591
NCI-H1355 | 0.422 | 0.465 | 0.495 | 0.291 | 0.315 | 0.352 | 0.442 | 0.427 | 0.316 | 0.261 | 0.627 | 0.68 | 0.518 | 0.525 | 0.254 | 1.04 | 0.983 | 0.865 | 0.547 | 0.546
NCI-H1395 | 0.491 | 0.487 | 0.514 | 0.354 | 0.292 | 0.642 | 0.681 | 0.67 | 0.384 | 0.316 | 0.425 | 0.372 | 0.399 | 0.441 | 0.43 | 1.08 | 0.803 | 1.12 | 0.83 | 0.906
NCI-H1437 | 0.326 | 0.335 | 0.371 | 0.251 | 0.189 | 1.1 | 0.881 | 1.16 | 0.938 | 0.263 | 0.352 | 0.308 | 0.463 | 0.505 | 0.463 | 0.758 | 0.787 | 0.811 | 0.551 | 0.715
NCI-H1563 | 0.663 | 0.685 | 0.696 | 0.63 | 0.54 | 0.841 | 0.768 | 0.834 | 0.843 | 0.536 | 0.47 | 0.485 | 0.384 | 0.812 | 0.378 | 0.949 | 1.05 | 1.03 | 0.591 | 0.856
NCI-H1650 | 0.512 | 0.467 | 0.407 | 0.182 | 0.305 | 0.573 | 0.718 | 0.623 | 0.174 | 0.271 | 0.291 | 0.293 | 0.355 | 0.258 | 0.241 | 0.8 | 0.84 | 0.777 | 0.164 | 0.481
NCI-H1651 | 0.365 | 0.413 | 0.374 | 0.299 | 0.121 | 0.837 | 0.696 | 0.848 | 0.684 | 0.137 | 0.343 | 0.386 | 0.416 | 0.251 | 0.301 | 0.761 | 0.772 | 0.78 | 0.667 | 0.566
